Measured values as given in the NIST ThermoML archive (doi:10.1021/je0501890).
Numbers after ± are expanded uncertainties.

Experiment: xn = mol fraction of the nth substance listed
Conditions: 101.33 kPa, Liquid

## CCCCCCCO [heptan-1-ol] + ClCCCl
293.15 K, x1 = 0.0502
  mass density: 1213.23 ± 0.85 kg/m3
293.15 K, x1 = 0.1023
  viscosity: 0.922 ± 0.013 mPa·s
293.15 K, x1 = 0.1024
  mass density: 1175.9 ± 0.79 kg/m3
293.15 K, x1 = 0.1493
  mass density: 1145.01 ± 0.74 kg/m3
293.15 K, x1 = 0.2009
  viscosity: 1.104 ± 0.015 mPa·s
293.15 K, x1 = 0.2511
  mass density: 1085.65 ± 0.66 kg/m3
293.15 K, x1 = 0.2957
  viscosity: 1.342 ± 0.018 mPa·s
293.15 K, x1 = 0.3445
  mass density: 1038.38 ± 0.6 kg/m3
293.15 K, x1 = 0.3465
  viscosity: 1.501 ± 0.02 mPa·s
293.15 K, x1 = 0.3896
  mass density: 1017.38 ± 0.58 kg/m3
293.15 K, x1 = 0.4198
  mass density: 1004.18 ± 0.57 kg/m3
293.15 K, x1 = 0.455
  mass density: 989.42 ± 0.56 kg/m3
293.15 K, x1 = 0.4616
  viscosity: 1.939 ± 0.026 mPa·s
293.15 K, x1 = 0.5017
  mass density: 970.85 ± 0.57 kg/m3
293.15 K, x1 = 0.5035
  viscosity: 2.139 ± 0.029 mPa·s
293.15 K, x1 = 0.5437
  viscosity: 2.355 ± 0.032 mPa·s
293.15 K, x1 = 0.551
  mass density: 952.41 ± 0.57 kg/m3
293.15 K, x1 = 0.5998
  viscosity: 2.703 ± 0.036 mPa·s
293.15 K, x1 = 0.6036
  mass density: 933.66 ± 0.57 kg/m3
293.15 K, x1 = 0.6481
  mass density: 918.87 ± 0.58 kg/m3
293.15 K, x1 = 0.6602
  mass density: 914.96 ± 0.58 kg/m3
293.15 K, x1 = 0.6956
  mass density: 903.77 ± 0.59 kg/m3
293.15 K, x1 = 0.6972
  viscosity: 3.412 ± 0.046 mPa·s
293.15 K, x1 = 0.7475
  viscosity: 3.887 ± 0.052 mPa·s
293.15 K, x1 = 0.748
  mass density: 887.98 ± 0.6 kg/m3
293.15 K, x1 = 0.7974
  mass density: 873.84 ± 0.61 kg/m3
293.15 K, x1 = 0.7978
  viscosity: 4.397 ± 0.059 mPa·s
293.15 K, x1 = 0.8548
  mass density: 858.28 ± 0.62 kg/m3
293.15 K, x1 = 0.8862
  viscosity: 5.474 ± 0.072 mPa·s
293.15 K, x1 = 0.8898
  mass density: 849.21 ± 0.63 kg/m3
293.15 K, x1 = 0.9489
  mass density: 834.67 ± 0.65 kg/m3
298.15 K, x1 = 0.0502
  mass density: 1206.24 ± 0.84 kg/m3
298.15 K, x1 = 0.1023
  viscosity: 0.851 ± 0.012 mPa·s
298.15 K, x1 = 0.1024
  mass density: 1169.21 ± 0.78 kg/m3
298.15 K, x1 = 0.1493
  mass density: 1138.62 ± 0.73 kg/m3
298.15 K, x1 = 0.2009
  viscosity: 1.006 ± 0.014 mPa·s
298.15 K, x1 = 0.2511
  mass density: 1079.74 ± 0.65 kg/m3
298.15 K, x1 = 0.2957
  viscosity: 1.215 ± 0.017 mPa·s
298.15 K, x1 = 0.3445
  mass density: 1032.88 ± 0.6 kg/m3
298.15 K, x1 = 0.3465
  viscosity: 1.353 ± 0.018 mPa·s
298.15 K, x1 = 0.3896
  mass density: 1012.13 ± 0.57 kg/m3
298.15 K, x1 = 0.4198
  mass density: 999.04 ± 0.56 kg/m3
298.15 K, x1 = 0.455
  mass density: 984.4 ± 0.57 kg/m3
298.15 K, x1 = 0.4616
  viscosity: 1.732 ± 0.023 mPa·s
298.15 K, x1 = 0.5017
  mass density: 966 ± 0.57 kg/m3
298.15 K, x1 = 0.5035
  viscosity: 1.901 ± 0.026 mPa·s
298.15 K, x1 = 0.5437
  viscosity: 2.079 ± 0.028 mPa·s
298.15 K, x1 = 0.551
  mass density: 947.76 ± 0.57 kg/m3
298.15 K, x1 = 0.5998
  viscosity: 2.367 ± 0.032 mPa·s
298.15 K, x1 = 0.6036
  mass density: 929.17 ± 0.58 kg/m3
298.15 K, x1 = 0.6481
  mass density: 914.5 ± 0.58 kg/m3
298.15 K, x1 = 0.6602
  mass density: 910.61 ± 0.58 kg/m3
298.15 K, x1 = 0.6956
  mass density: 899.55 ± 0.59 kg/m3
298.15 K, x1 = 0.6972
  viscosity: 2.955 ± 0.04 mPa·s
298.15 K, x1 = 0.7475
  viscosity: 3.354 ± 0.045 mPa·s
298.15 K, x1 = 0.748
  mass density: 883.88 ± 0.6 kg/m3
298.15 K, x1 = 0.7974
  mass density: 869.91 ± 0.61 kg/m3
298.15 K, x1 = 0.7978
  viscosity: 3.773 ± 0.051 mPa·s
298.15 K, x1 = 0.8548
  mass density: 854.47 ± 0.63 kg/m3
298.15 K, x1 = 0.8862
  viscosity: 4.65 ± 0.063 mPa·s
298.15 K, x1 = 0.8898
  mass density: 845.44 ± 0.64 kg/m3
298.15 K, x1 = 0.9489
  mass density: 831.05 ± 0.65 kg/m3
303.15 K, x1 = 0.0502
  mass density: 1199.3 ± 0.83 kg/m3
303.15 K, x1 = 0.1023
  viscosity: 0.796 ± 0.011 mPa·s
303.15 K, x1 = 0.1024
  mass density: 1162.55 ± 0.77 kg/m3
303.15 K, x1 = 0.1493
  mass density: 1132.15 ± 0.72 kg/m3
303.15 K, x1 = 0.2009
  viscosity: 0.928 ± 0.013 mPa·s
303.15 K, x1 = 0.2511
  mass density: 1073.87 ± 0.64 kg/m3
303.15 K, x1 = 0.2957
  viscosity: 1.105 ± 0.015 mPa·s
303.15 K, x1 = 0.3445
  mass density: 1027.38 ± 0.59 kg/m3
303.15 K, x1 = 0.3465
  viscosity: 1.227 ± 0.017 mPa·s
303.15 K, x1 = 0.3896
  mass density: 1006.83 ± 0.57 kg/m3
303.15 K, x1 = 0.4198
  mass density: 993.91 ± 0.56 kg/m3
303.15 K, x1 = 0.455
  mass density: 979.35 ± 0.57 kg/m3
303.15 K, x1 = 0.4616
  viscosity: 1.546 ± 0.021 mPa·s
303.15 K, x1 = 0.5017
  mass density: 961.14 ± 0.57 kg/m3
303.15 K, x1 = 0.5035
  viscosity: 1.699 ± 0.023 mPa·s
303.15 K, x1 = 0.5437
  viscosity: 1.844 ± 0.025 mPa·s
303.15 K, x1 = 0.551
  mass density: 943.04 ± 0.57 kg/m3
303.15 K, x1 = 0.5998
  viscosity: 2.089 ± 0.028 mPa·s
303.15 K, x1 = 0.6036
  mass density: 924.63 ± 0.58 kg/m3
303.15 K, x1 = 0.6481
  mass density: 910.13 ± 0.59 kg/m3
303.15 K, x1 = 0.6602
  mass density: 906.29 ± 0.59 kg/m3
303.15 K, x1 = 0.6956
  mass density: 895.28 ± 0.59 kg/m3
303.15 K, x1 = 0.6972
  viscosity: 2.583 ± 0.035 mPa·s
303.15 K, x1 = 0.7475
  viscosity: 2.905 ± 0.04 mPa·s
303.15 K, x1 = 0.748
  mass density: 879.79 ± 0.61 kg/m3
303.15 K, x1 = 0.7974
  mass density: 865.91 ± 0.62 kg/m3
303.15 K, x1 = 0.7978
  viscosity: 3.253 ± 0.044 mPa·s
303.15 K, x1 = 0.8548
  mass density: 850.61 ± 0.63 kg/m3
303.15 K, x1 = 0.8862
  viscosity: 3.979 ± 0.055 mPa·s
303.15 K, x1 = 0.8898
  mass density: 841.7 ± 0.64 kg/m3
303.15 K, x1 = 0.9489
  mass density: 827.43 ± 0.66 kg/m3
